Laboratory results from paper PMC10799935, “Discovery of a peripheral 5HT2A antagonist as a clinical candidate for metabolic dysfunction-associated steatohepatitis” (Nature Communications, 2024).
Values joined by “and” are separate entries in the source; they are usually repeats but may differ in a detail not shown here. Equal entries are not always repeated. Where two headings read alike, the source gives them in different places.

What was measured:
[1] = biological target: T1, 5HT1A (h) (Homo sapiens, UniProt P08908); assay: 5HT subtype antagonism assay (Eurofins Cerep): 5HT1A; format: cell-based; conditions: concentration not given
T1 construct: host or cells: BA/F3 cells

[2] = Hepatocyte stability test, dog; format: in vitro ADME; conditions: male, beagle, cryopreserved hepatocytes, pH 7.4, read-out: Hepatocyte stability (% remaining after 3 h)
Experimental: Hepatocyte incubations for the test compound (10 μM final concentration, n = 2 per each time point) were carried out in mouse, rat, dog, monkey and human cryopreserved hepatocytes, resuspended at a density of 0.5 million cells/ml of modified Krebs-Henseleit buffer (KHB). The information regarding the hepatocytes used in the experiment is as follows: liverPool® 10-donor mixed gender human (BioIVT, Cat.No. X008001, lot EAV), male cynomolgus monkey (BioIVT, Cat.No. M00305, lot COJ), male Beagle dog (BioIVT, Cat.No. M00205, lot USY), male Sprague Dawley rat (BioIVT, Cat.No. M00005, lot TQE) and male CD1 mouse (BioIVT, Cat.No.005052, lot LFF). In addition, the compound was also incubated with blank KHB. The final concentration of solvent (DMSO) was 0.1% of the final volume. The incubations were performed for 3 hours at 37°C and pH 7.4. Reactions were terminated at 0 and 180 minutes by the addition of 3 volumes of stop solution (acetonitrile/methanol (2:1, v/v) containing internal standard–diclofenac at 100 ng/ml). Samples (compound spiked buffer and compound spiked hepatocytes, as well as blank samples, i.e. hepatocytes with the same DMSO%) were then centrifuged and aliquots were transferred to 96-deep micronic tubes and frozen at -80 °C until LC-MS/MS analysis. […]

[3] = Pharmacokinetic study in rats; format: in vivo, Sprague-Dawley rats; conditions: rat
Experimental: The experimental protocol for this study was approved by the IACUC of KPC Co., Ltd. (No. KPC IACUC-P203046; Beagle dogs) or QuBEST BIO (No.QBIACUC-A20131). All relevant ethical guidelines were followed. Beagle male dogs (11 ~ 20 months old) were purchased from ORIENT BIO Inc. and were housed in the barrier animal facility of KPC Co., Ltd. under a regular light-dark cycle (12-hour light/12-hour dark) at 21.1–23.4°C with 55.3–72.2% humidity. Food (standard irradiated pelleted commercial laboratory diet, Cargill Agri Purina, 300 g/dog.day) and water were provided ad libitum. All study dogs were returned to the laboratory colony after the study without any euthanasia. Sprague-Dawley male rats (7 weeks old) were purchased from SAMTAKOBIOKOREA, Inc. and were housed in the barrier animal facility of Nonclinical Research Center, QuBEST BIO under a regular light-dark cycle (12-hour light/12-hour dark) at 19.7–22.7°C with 54.5–65.6% humidity. Food (standard irradiated pelleted commercial laboratory diet, Purina Rodent Chow, 38057) and water were provided ad libitum. All study rats were euthanized by CO2 gas upon study completion.
Blood samples were collected at the scheduled times up to 24 h post-dose (IV: 0.083, 0.25, 0.5, 1, 2, 4, 8, 12 and 24 h post-dose, PO: 0.25, 0.5, 1, 2, 4, 8, 12 and 24 h post-dose). Determination of compound 11c in plasma was performed by UHPLC-MS/MS. Pharmacokinetic parameters were calculated by noncompartmental analysis using Phoenix® WinNonlin® (Ver. 8.3‘, Certara).

[4] = test system: α-SMA; assay: CDAHFD mice: liver α-SMA RNA expression (qRT-PCR); format: in vivo, mouse; conditions: for Relative liver α-SMA expressions in mice, measured using quantitative RT-PCR: individual mice and Average
Text: C57BL/6 J male mice were purchased from the Japan SLC. Inc (Hamamatsu, Japan). Mice (5 weeks old) were fed Teklad Certitied Irradiated Global 18% protein rodent diet purchased from Dooyeol Biotech Co. Ltd (Seoul, South Korea) during the acclimation period. The liver fibrosis/inflammation-induced groups were CDAHFD-fed (A06071302, Research diet). […]. […] All animal experiments complied with the relevant ethical regulations.
The frozen liver tissue was homogenized and put into QiAzol (Qiagen, Hilden) to isolate RNA, and 4 μg of RNA was synthesized into cDNA using the RevertAid First Strand cDNA synthesis kit (Thermo Fischer, Waltham). The expressions of mouse collagen I (Forward: 5’-TGTGTTCCCTACTCAGCCGTG-3’. Reverse: 5’-CATCGGTCATGCTCTCTCCAA-3’), mouse α-SMA (Forward:5’-TCCTGACGCTGAAGTATCCGAT-3’, Reverse: 5’-GGCCACACAAAGCTCGTTATAG-3’) and mouse 36B4 (Forward: 5’-ACCTCCTTCTTCCAGGCTTT-3’, Reverse: 5’-CTCCAGTCTTTATCAGCTGC-3’) as house-keeping gene were measured using ViiA 7 Real-time PCR system (Thermo Fischer scientific).

[5] = 3weeks
[6] = male, Sprague-Dawley, plasma, 5 mg/kg, IV (5 mpk)

T1 sequence (P08908 whole entry): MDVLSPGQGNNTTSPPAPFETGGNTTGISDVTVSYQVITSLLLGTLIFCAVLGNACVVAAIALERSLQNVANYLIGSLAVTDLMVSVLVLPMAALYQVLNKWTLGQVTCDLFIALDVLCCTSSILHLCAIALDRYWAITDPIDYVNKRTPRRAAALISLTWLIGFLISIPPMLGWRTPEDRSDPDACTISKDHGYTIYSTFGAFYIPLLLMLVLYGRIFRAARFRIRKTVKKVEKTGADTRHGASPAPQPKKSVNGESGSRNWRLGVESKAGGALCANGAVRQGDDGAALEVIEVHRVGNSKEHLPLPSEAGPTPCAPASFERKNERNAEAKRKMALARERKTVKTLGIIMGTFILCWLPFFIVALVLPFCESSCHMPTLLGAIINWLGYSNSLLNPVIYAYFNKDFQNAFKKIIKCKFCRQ

## Cc1nc2n(c(=O)c1CCN1CCC(=C3c4ccc(Cl)cc4CCc4cccnc43)CC1)CCCC2O (stereo not drawn) [Compound 11c]
[1]
  Selectivity 1 A: % inhibition: 9%
[2]
  remaining at 3 h, 10 μM: 88.5%
[3]; [6]
  AUC: 1550 ng·h/mL
  clearance: 47 mL/min/kg
[3]; male, Sprague-Dawley, plasma, 5 mg/kg, PO (5 mpk)
  AUC: 980 ng·h/mL
[3]; male, Sprague-Dawley, plasma, 5 mg/kg, PO (5 mpk), read-out: F (%)
  bioavailability: 63%
[3]; male, Sprague-Dawley, plasma, 10 mg/kg, PO (10 mpk)
  AUC: 2880 ng·h/mL
[3]; male, Sprague-Dawley, plasma, 10 mg/kg, PO (10 mpk), read-out: F (%)
  bioavailability: 92.5%
[3]; male, Sprague-Dawley, plasma, iv, 5 mg/kg, IV (5 mpk)
  half-life: 4.14 h
[3]; male, Sprague-Dawley, plasma, po, 5 mg/kg, PO (5 mpk)
  half-life: 2.5 h
[3]; male, Sprague-Dawley, plasma, po, 10 mg/kg, PO (10 mpk)
  half-life: 2.7 h
[3]; male, Sprague-Dawley, plasma, po, rats (summary statement), read-out: oral bioavailability
  bioavailability: > 60%
[3]; IV (5 mpk)
  V: 8.86 L/kg
[3]; IV (5 mpk), 5 mg/kg
  T1/2: 4.4 h
[4]; CDAHFD+11c 5 mpk
  Relative liver α-SMA expressions in mice, measured using quantitative RT-PCR: 2.564 and 0.488 and 1.651 and 1.165 and 1.498
[4]; CDAHFD+11c 5 mpk, mean
  Relative liver α-SMA expressions in mice, measured using quantitative RT-PCR: 1.473
[4]; CDAHFD+11c 10mpk
  Relative liver α-SMA expressions in mice, measured using quantitative RT-PCR: 2.015 and 1.845 and 1.808 and 2.373 and 1.519
[4]; CDAHFD+11c 10mpk, mean
  Relative liver α-SMA expressions in mice, measured using quantitative RT-PCR: 1.912
[4]; CDAHFD-fed 11c vs CDAHFD-fed vehicle group
  mRNA expression of α-SMA in liver tissue: significantly decreased
[5]; 25 °C
  Chemical stability: 99.8%
[5]; 60 °C
  Chemical stability: 99.6%
